{"source": "patent US6737383B1", "about": "“Herbicidal oxadiazolidines” (priority 1999, dated 2004)", "key": {"bedstraw": {"tested_on": "bedstraw", "experiment": "Test B pre/postemergence bedstraw", "type": "in vivo, Galium aparine", "conditions": "for Bedstraw plant response rating: 10 is complete control", "summary_of_the_method": "(§1)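 Herbicidal effect was estimated by eye on a ten-point control scale after plants spent twelve to sixteen days in a greenhouse following soil or foliar treatment. Foliar sprays targeted plants at one to four leaves; all doses were formulated in a non-phytotoxic solvent with surfactant.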"}, "blackgrass": {"tested_on": "blackgrass", "experiment": "Test B pre/postemergence blackgrass", "type": "in vivo, Alopecurus myosuroides", "summary_of_the_method": "as §1"}, "surinam grass": {"tested_on": "surinam grass", "experiment": "Test B pre/postemergence surinam grass", "type": "in vivo, Brachiaria decumbens", "summary_of_the_method": "as §1"}, "cocklebur": {"tested_on": "cocklebur", "experiment": "Test B pre/postemergence cocklebur", "type": "in vivo, Xanthium strumarium", "summary_of_the_method": "as §1"}, "corn": {"tested_on": "corn", "experiment": "Test B pre/postemergence corn", "type": "in vivo, Zea mays", "summary_of_the_method": "as §1"}, "crabgrass": {"tested_on": "crabgrass", "experiment": "Test B pre/postemergence crabgrass", "type": "in vivo, Digitaria sanguinalis", "summary_of_the_method": "as §1"}, "giant foxtail": {"tested_on": "giant foxtail", "experiment": "Test B pre/postemergence giant foxtail", "type": "in vivo, Setaria faberii", "summary_of_the_method": "as §1"}, "morningglory": {"tested_on": "morningglory", "experiment": "Test B pre/postemergence morningglory", "type": "in vivo, Ipomoea hederacea", "summary_of_the_method": "as §1"}, "pigweed": {"tested_on": "pigweed", "experiment": "Test B pre/postemergence pigweed", "type": "in vivo, Amaranthus retroflexus", "summary_of_the_method": "as §1"}, "rape": {"tested_on": "rape", "experiment": "Test B pre/postemergence rape", "type": "in vivo, Brassica napus", "summary_of_the_method": "as §1"}, "soybean": {"tested_on": "soybean", "experiment": "Test B pre/postemergence soybean", "type": "in vivo, Glycine max", "summary_of_the_method": "as §1"}, "sugar beet": {"tested_on": "sugar beet", "experiment": "Test B pre/postemergence sugar beet", "type": "in vivo, Beta vulgaris", "summary_of_the_method": "as §1"}, "velvetleaf": {"tested_on": "velvetleaf", "experiment": "Test B pre/postemergence velvetleaf", "type": "in vivo, Abutilon theophrasti", "summary_of_the_method": "as §1"}, "wheat": {"tested_on": "wheat", "experiment": "Test B pre/postemergence wheat", "type": "in vivo, Triticum aestivum", "summary_of_the_method": "as §1"}, "wild oat": {"tested_on": "wild oat", "experiment": "Test B pre/postemergence wild oat", "type": "in vivo, Avena fatua", "summary_of_the_method": "as §1"}, "purple nutsedge": {"tested_on": "purple nutsedge", "experiment": "Test B pre/postemergence purple nutsedge", "type": "in vivo, Cyperus rotundus", "summary_of_the_method": "as §1"}, "[1]": {"conditions": "Preemergence, Rate 62 g/ha, scale of 0 to 10 where 0 is no effect and 10 is complete control"}, "[2]": {"conditions": "Postemergence, Rate 62 g/ha, scale of 0 to 10, 0 is no effect, 10 is complete control"}, "[3]": {"conditions": "Postemergence, Rate 125 g/ha, scale 0 to 10, 0 is no effect, 10 is complete control"}, "[4]": {"conditions": "Postemergence, Rate 250 g/ha, scale 0 to 10"}, "[5]": {"conditions": "Postemergence, Rate 500 g/ha, scale 0 to 10, 0 is no effect, 10 is complete control"}, "[6]": {"conditions": "Preemergence, Rate 125 g/ha, scale 0 to 10, 0 is no effect, 10 is complete control"}, "[7]": {"conditions": "Preemergence, Rate 250 g/ha, scale 0 to 10, 0 is no effect, 10 is complete control"}, "[8]": {"conditions": "Preemergence, Rate 500 g/ha, scale of 0 to 10 where 0 is no effect and 10 is complete control"}}}
{"smiles": "CC(=O)C(C)n1c(=O)on(C(=O)N(c2ccc(F)cc2F)C(C)C)c1=O", "note": "(stereo not shown) [Compound 517]", "values": [{"measurement": "Bedstraw plant response rating", "setting": "bedstraw; Postemergence, Rate 62 g/ha, scale of 0 to 10, 0 is no effect", "result": 4}, {"measurement": "Bedstraw plant response rating", "setting": "bedstraw; Postemergence, Rate 125 g/ha, scale 0 to 10, 0 is no effect", "result": 7}, {"measurement": "Plant response rating, Bedstraw", "setting": "bedstraw; [1]", "result": 0}, {"measurement": "Bedstraw plant response rating", "setting": "bedstraw; Preemergence, Rate 125 g/ha, scale 0 to 10, 0 is no effect", "result": 0}, {"measurement": "Bedstraw plant response rating", "setting": "bedstraw; Preemergence, Rate 250 g/ha, scale 0 to 10, 0 is no effect", "result": 0}, {"measurement": "Bedstraw plant response rating", "setting": "bedstraw; Preemergence, Rate 500 g/ha, scale 0 to 10, 0 is no effect", "result": 0}, {"measurement": "Blackgrass plant response rating", "setting": "blackgrass; [2]", "result": 0}, {"measurement": "Blackgrass plant response rating", "setting": "blackgrass; [3]", "result": 3}, {"measurement": "Blackgrass plant response rating", "setting": "blackgrass; [4]", "result": 6}, {"measurement": "Plant response rating, Blackgrass", "setting": "blackgrass; [5]", "result": 6}, {"measurement": "Plant response rating, Blackgrass", "setting": "blackgrass; [1]", "result": 2}, {"measurement": "Blackgrass plant response rating", "setting": "blackgrass; [6]", "result": 2}, {"measurement": "Blackgrass plant response rating", "setting": "blackgrass; [7]", "result": 4}, {"measurement": "Blackgrass plant response rating", "setting": "blackgrass; [8]", "result": 4}, {"measurement": "B. signalgrass plant response rating", "setting": "surinam grass; [2]", "result": 0}, {"measurement": "B. signalgrass plant response rating", "setting": "surinam grass; [3]", "result": 4}, {"measurement": "B. signalgrass plant response rating", "setting": "surinam grass; Postemergence, Rate 250 g/ha, scale 0 to 10, 0 no effect, 10 complete control", "result": 6}, {"measurement": "Plant response rating, B. signalgrass", "setting": "surinam grass; [5]", "result": 8}, {"measurement": "Plant response rating, B. signalgrass", "setting": "surinam grass; [1]", "result": 0}, {"measurement": "B. signalgrass plant response rating", "setting": "surinam grass; [6]", "result": 0}, {"measurement": "B. signalgrass plant response rating", "setting": "surinam grass; [7]", "result": 0}, {"measurement": "B. signalgrass plant response rating", "setting": "surinam grass; Preemergence, Rate 500 g/ha, scale 0 to 10, 0 is no effect, 10 is complete control", "result": 0}, {"measurement": "Cocklebur plant response rating", "setting": "cocklebur; [2]", "result": 0}, {"measurement": "Cocklebur plant response rating", "setting": "cocklebur; [3]", "result": 0}, {"measurement": "Cocklebur plant response rating", "setting": "cocklebur; [4]", "result": 0}, {"measurement": "Plant response rating, Cocklebur", "setting": "cocklebur; [5]", "result": 4}, {"measurement": "Plant response rating, Cocklebur", "setting": "cocklebur; [1]", "result": 0}, {"measurement": "Cocklebur plant response rating", "setting": "cocklebur; [6]", "result": 0}, {"measurement": "Cocklebur plant response rating", "setting": "cocklebur; [7]", "result": 0}, {"measurement": "Cocklebur plant response rating", "setting": "cocklebur; [8]", "result": 0}, {"measurement": "Corn plant response rating", "setting": "corn; [2]", "result": 0}, {"measurement": "Corn plant response rating", "setting": "corn; [3]", "result": 0}, {"measurement": "Corn plant response rating", "setting": "corn; [4]", "result": 0}, {"measurement": "Plant response rating, Corn", "setting": "corn; [5]", "result": 4}, {"measurement": "Plant response rating, Corn", "setting": "corn; [1]", "result": 0}, {"measurement": "Corn plant response rating", "setting": "corn; [6]", "result": 0}, {"measurement": "Corn plant response rating", "setting": "corn; [8]", "result": 3}, {"measurement": "Crabgrass plant response rating", "setting": "crabgrass; [2]", "result": 7}, {"measurement": "Crabgrass plant response rating", "setting": "crabgrass; [3]", "result": 7}, {"measurement": "Crabgrass plant response rating", "setting": "crabgrass; [4]", "result": 8}, {"measurement": "Plant response rating, Crabgrass", "setting": "crabgrass; [5]", "result": 9}, {"measurement": "Plant response rating, Crabgrass", "setting": "crabgrass; [1]", "result": 4}, {"measurement": "Crabgrass plant response rating", "setting": "crabgrass; [6]", "result": 4}, {"measurement": "Crabgrass plant response rating", "setting": "crabgrass; [8]", "result": 7}, {"measurement": "Giant foxtail plant response rating", "setting": "giant foxtail; [2]", "result": 8}, {"measurement": "Giant foxtail plant response rating", "setting": "giant foxtail; [3]", "result": 8}, {"measurement": "Plant response rating, Giant foxtail", "setting": "giant foxtail; [5]", "result": 9}, {"measurement": "Plant response rating, Giant foxtail", "setting": "giant foxtail; [1]", "result": 2}, {"measurement": "Giant foxtail plant response rating", "setting": "giant foxtail; [6]", "result": 3}, {"measurement": "Giant foxtail plant response rating", "setting": "giant foxtail; [8]", "result": 10}, {"measurement": "Morningglory plant response rating", "setting": "morningglory; [2]", "result": 2}, {"measurement": "Morningglory plant response rating", "setting": "morningglory; [3]", "result": 2}, {"measurement": "Plant response rating, Morningglory", "setting": "morningglory; [5]", "result": 2}, {"measurement": "Plant response rating, Morningglory", "setting": "morningglory; [1]", "result": 0}, {"measurement": "Morningglory plant response rating", "setting": "morningglory; [6]", "result": 0}, {"measurement": "Morningglory plant response rating", "setting": "morningglory; [8]", "result": 0}, {"measurement": "Redroot pigweed plant response rating", "setting": "pigweed; [2]", "result": 0}, {"measurement": "Redroot pigweed plant response rating", "setting": "pigweed; [3]", "result": 4}, {"measurement": "Plant response rating, Redroot pigweed", "setting": "pigweed; [5]", "result": 7}, {"measurement": "Plant response rating, Redroot pigweed", "setting": "pigweed; [1]", "result": 8}, {"measurement": "Redroot pigweed plant response rating", "setting": "pigweed; [6]", "result": 9}, {"measurement": "Redroot pigweed plant response rating", "setting": "pigweed; [8]", "result": 10}, {"measurement": "Rape plant response rating", "setting": "rape; [2]", "result": 0}, {"measurement": "Rape plant response rating", "setting": "rape; [3]", "result": 0}, {"measurement": "Plant response rating, Rape", "setting": "rape; [5]", "result": 4}, {"measurement": "Plant response rating, Rape", "setting": "rape; [1]", "result": 0}, {"measurement": "Rape plant response rating", "setting": "rape; [6]", "result": 0}, {"measurement": "Rape plant response rating", "setting": "rape; [8]", "result": 4}, {"measurement": "Soybean plant response rating", "setting": "soybean; [2]", "result": 0}, {"measurement": "Soybean plant response rating", "setting": "soybean; [3]", "result": 6}, {"measurement": "Plant response rating, Soybean", "setting": "soybean; [5]", "result": 8}, {"measurement": "Plant response rating, Soybean", "setting": "soybean; [1]", "result": 0}, {"measurement": "Soybean plant response rating", "setting": "soybean; [6]", "result": 0}, {"measurement": "Soybean plant response rating", "setting": "soybean; [8]", "result": 0}, {"measurement": "Sugarbeets plant response rating", "setting": "sugar beet; [2]", "result": 0}, {"measurement": "Sugarbeets plant response rating", "setting": "sugar beet; [3]", "result": 0}, {"measurement": "Plant response rating, Sugarbeets", "setting": "sugar beet; [5]", "result": 3}, {"measurement": "Plant response rating, Sugarbeets", "setting": "sugar beet; [1]", "result": 0}, {"measurement": "Sugarbeets plant response rating", "setting": "sugar beet; [6]", "result": 0}, {"measurement": "Sugarbeets plant response rating", "setting": "sugar beet; [8]", "result": 5}, {"measurement": "Velvetleaf plant response rating", "setting": "velvetleaf; [2]", "result": 0}, {"measurement": "Velvetleaf plant response rating", "setting": "velvetleaf; [3]", "result": 0}, {"measurement": "Plant response rating, Velvetleaf", "setting": "velvetleaf; [5]", "result": 6}, {"measurement": "Plant response rating, Velvetleaf", "setting": "velvetleaf; [1]", "result": 0}, {"measurement": "Velvetleaf plant response rating", "setting": "velvetleaf; [6]", "result": 0}, {"measurement": "Velvetleaf plant response rating", "setting": "velvetleaf; [8]", "result": 3}, {"measurement": "Wheat plant response rating", "setting": "wheat; [2]", "result": 0}, {"measurement": "Wheat plant response rating", "setting": "wheat; [3]", "result": 0}, {"measurement": "Plant response rating, Wheat", "setting": "wheat; [5]", "result": 4}, {"measurement": "Plant response rating, Wheat", "setting": "wheat; [1]", "result": 0}, {"measurement": "Wheat plant response rating", "setting": "wheat; [6]", "result": 0}, {"measurement": "Wheat plant response rating", "setting": "wheat; [8]", "result": 6}, {"measurement": "Wild oats plant response rating", "setting": "wild oat; [2]", "result": 0}, {"measurement": "Wild oats plant response rating", "setting": "wild oat; [3]", "result": 0}, {"measurement": "Plant response rating, Wild oats", "setting": "wild oat; [5]", "result": 3}, {"measurement": "Plant response rating, Wild oats", "setting": "wild oat; [1]", "result": 4}, {"measurement": "Wild oats plant response rating", "setting": "wild oat; [6]", "result": 4}, {"measurement": "Wild oats plant response rating", "setting": "wild oat; [8]", "result": 5}, {"measurement": "Nutsedge plant response rating", "setting": "purple nutsedge; [2]", "result": 0}, {"measurement": "Nutsedge plant response rating", "setting": "purple nutsedge; [3]", "result": 0}, {"measurement": "Plant response rating, Nutsedge", "setting": "purple nutsedge; [1]", "result": 0}, {"measurement": "Nutsedge plant response rating", "setting": "purple nutsedge; [6]", "result": 0}, {"measurement": "Nutsedge plant response rating", "setting": "purple nutsedge; [8]", "result": 0}]}
